The values below come from paper PMC12928749 (ACS catalysis, 2025).

By Kd is commonly meant the constant that tells how readily two partners part at equilibrium. Read a low Kd as a tighter complex.

Assay [1] addresses T1, TyrH (heme-dependent tyrosine hydroxylase) (Streptomyces sclerotialus, UniProt Z9QGI7APK5).
T1 sequence (Z9QGI7APK5 1-314): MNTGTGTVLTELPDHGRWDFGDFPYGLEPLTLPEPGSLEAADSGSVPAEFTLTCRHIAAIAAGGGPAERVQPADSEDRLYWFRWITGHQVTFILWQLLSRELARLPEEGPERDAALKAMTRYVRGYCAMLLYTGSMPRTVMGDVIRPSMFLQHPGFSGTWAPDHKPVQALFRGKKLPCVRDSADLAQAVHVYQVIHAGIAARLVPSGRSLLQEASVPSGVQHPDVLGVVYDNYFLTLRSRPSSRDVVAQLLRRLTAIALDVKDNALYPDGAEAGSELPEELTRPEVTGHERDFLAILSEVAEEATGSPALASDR
As to the kind of experiment: steady-state kinetics. It counts as biochemical. The conditions noted are these: co-substrate H2O2.

For assay [2], the target named is T1, TyrH (heme-dependent tyrosine hydroxylase). As to the kind of experiment: UV-vis titration. The conditions noted are these: 100 mM potassium phosphate, 50 mM NaCl, pH 7.4; ferric enzyme. Type of assay: binding.

As to `O=C(O)CCc1ccc(O)cc1` [HPPA, 3-(4-hydroxyphenyl)propionic acid], the KM result in assay [1] was “The KM values for both tyrosine and HPPA were comparable (Figure S8)”.

On to `N[C@@H](Cc1ccc(O)cc1)C(=O)O` [L-Tyr, L-tyrosine], for which, in assay [1], the KM entry is “The KM values for both tyrosine and HPPA were comparable (Figure S8)”.

`O=Nc1ccccc1` [NB, nitrosobenzene] showed a Kd in assay [2] of 296 ± 8 µM.
